Read-outs that look alike come from different tables or passages of the source.
Tests used:
Type in all cases: physicochemical
[1] = Active ingredient stability in solvents (0,002 molar, HPLC); settings: for remaining at 5 min, 2000 µM: Abbauzeit 5 min; for remaining at 20 min, 2000 µM: Abbauzeit 20 min; for remaining at 1 h, 2000 µM: Abbauzeit 60 min; for remaining at 7 min, 2000 µM: Abbauzeit 7 min; for remaining at 0.5 h, 2000 µM: Abbauzeit 30 min
Excerpt: In der Tabelle 2 wird die Wirkstoffstabilität der oben genannten Substanz 2 in verschiedenen Lösungsmitteln als Beispiel aufgeführt. […] Die Konzentration an Wirkstoff war bei diesen Untersuchungen 0,002 molar. Die Analyse wurde mit Hilfe der Hochdruckflüssigkeitschromatographie (HPLC) durchgeführt.

[2] = Water solubility of the solvents; settings: for Wasserlöslichkeit der Lösungsmittel (%): Säureamide of Tabelle 4; for H2O-Löslichkeit des Lösungsmittels (%) Gew.-% Lösungs-mittel in Wasser: Tabelle 1 solvents
Excerpt: (§1) Beispiele von Säureamiden sind in der Tabelle 4 zusammengefaßt. Bestimmt wurden die Löslichkeiten der Substanzen 1 (Chloridazon) und 2 (Biscarbamat) wie sie in Tabelle 1 aufgeführt sind, sowie die Wasserlöslichkeit der Lösungsmittel.

[3] = Solubility of Substanz 1 and Substanz 2 in solvents at room temperature
Excerpt: as §1

[4] = Phenmedipham degradation in formulations at various temperatures
Excerpt: Es wurde der Abbau des Phenmedipham bei verschiedenen Temperaturen verfolgt.

[5] = Stability of Phenmedipham in solvents, 24 h storage, HPLC; settings: 24 Std., read-out: Restwirkstoff an Phenmedipham Wirkstoffgehalt
Method: In der folgenden Tabelle sind die Stabilitätsuntersuchungen von Phenmedipham bei verschiedenenen Temperaturen und konstanter Zeit zusammengefaßt. Es wurden 500 mg technischer Wirkstoff in 25 ml Lösungsmittel gelöst, die Lösungen bei der entsprechend gewählten Temperatur 24 Stunden gelagert und der Restwirkstoffgehalt analytisch mit Hilfe der HPLC-Methode bestimmt.

[6] = dimethylformamid (technisch), Dimethylformid (technisch), 50°C, read-out: Wirkstoffgehalt
[7] = dimethylformamid (technisch), Dimethylformid (technisch), 70°C, read-out: Wirkstoffgehalt
[8] = n-methylpyrrolidon, N-Methylpyrrolidon (rein 0,05% H2O), 50°C, read-out: Wirkstoffgehalt
[9] = n-methylpyrrolidone, N-Methylpyrrolidon (rein 0,05% H2O), 30°C, read-out: Wirkstoffgehalt

Question: For `Nc1cnn(-c2ccccc2)c(=O)c1Cl` [Substanz 1, 1-Phenyl-4-amino-5-chlor-pyridazon-(6), reference compound], which Stabilität ([1]; in the solvents of Tabelle 2) is on record?
Answer: keine Schwierigkeiten

Question: Which “Wasserlöslichkeit der Lösungsmittel (%)” value [2] does the source give for `CCCC(=O)N(CCC)CCC` [compound 7] here?
Answer: 1,5%

Question: With `CCCN(CCC)C(=O)C(C)C` [compound 8] as the compound, how does the “Wasserlöslichkeit der Lösungsmittel (%)” value [2] read?
Answer: 1,6%

Question: For `CCCN(CCC)C(=O)c1ccccc1` [compound 12], which “Wasserlöslichkeit der Lösungsmittel (%)” value [2] is on record?
Answer: 0,5%

Question: With `CCCCC(CC)C(=O)N(C)C` (centres unmarked) [compound 9] as the compound, how does the “Wasserlöslichkeit der Lösungsmittel (%)” value [2] read?
Answer: 1,5%

Question: For `O=C1CCCCC1` [Cyclohexanon, reference compound], which “H2O-Löslichkeit des Lösungsmittels (%) Gew.-% Lösungs-mittel in Wasser” value [2] is on record?
Answer: 3-4%

Question: Which remaining at 5 min, 2000 µM [1, 6] does the source give for `CCOC(=O)Nc1cccc(OC(=O)Nc2ccc(F)c(Cl)c2)c1` [Substanz 2, (3-Chlor-4-fluorphenyl)carbaminsäure-3(ethoxy-carbonyl)amino-phenylester] here?
Answer: 99.5%

Question: And the remaining at 20 min, 2000 µM [1, 6]?
Answer: 98.1%

Question: What about the remaining at 1 h, 2000 µM [1, 6] of the same compound?
Answer: 95.5%

Question: And the remaining at 7 min, 2000 µM [1, 7]?
Answer: 98.5%

Question: What about the remaining at 0.5 h, 2000 µM [1, 7] of the same compound?
Answer: 87.2%

Question: And the remaining at 1.05 h, 2000 µM ([1]; dimethylformamid (technisch), Dimethylformid (technisch), 70°C, Abbauzeit 63 min, read-out: Wirkstoffgehalt)?
Answer: 57.4%

Question: And the remaining at 7 min, 2000 µM ([1]; dimethylformamid (technisch), Dimethylformid (technisch), 80°C, read-out: Wirkstoffgehalt)?
Answer: 85.4%

Question: What about the remaining at 23 min, 2000 µM ([1]; dimethylformamid (technisch), Dimethylformid (technisch), 80°C, Abbauzeit 23 min, read-out: Wirkstoffgehalt) of the same compound?
Answer: 54.7%

Question: And the remaining at 37 min, 2000 µM ([1]; dimethylformamid (technisch), Dimethylformid (technisch), 80°C, Abbauzeit 37 min, read-out: Wirkstoffgehalt)?
Answer: 32.9%

Question: What about the remaining at 24 h, 2000 µM ([1]; isophoron, 80°C, Abbauzeit 24 Std., read-out: Wirkstoffgehalt) of the same compound?
Answer: 93%

Question: And the remaining at 5 min, 2000 µM [1, 8]?
Answer: 92.3%

Question: What about the remaining at 20 min, 2000 µM [1, 8] of the same compound?
Answer: 76.5%

Question: What about the remaining at 1 h, 2000 µM [1, 8] of the same compound?
Answer: 52.8%

Question: And the remaining at 5 min, 2000 µM [1, 9]?
Answer: 100%

Question: And the remaining at 0.5 h, 2000 µM [1, 9]?
Answer: 96.7%

Question: And the remaining at 3.5 h, 2000 µM ([1]; n-methylpyrrolidone, N-Methylpyrrolidon (rein 0,05% H2O), 30°C, Abbauzeit 210 min, read-out: Wirkstoffgehalt)?
Answer: 76.3%

Question: What about the “Löslichkeit in % (g Substanz in 100 g Lösung bei Raumtemperatur (RT 20°C))” value (from here on “Löslichkeit in %”) ([3]; in Cyclohexanon) of the same compound?
Answer: 35,0%

Question: And the “Löslichkeit in %” value ([3]; in Dimethylformamid)?
Answer: 47,2%

Question: And the “Löslichkeit in %” value ([3]; in Dimethylsulfoxid)?
Answer: 55,3%

Question: And the “Löslichkeit in %” value ([3]; in Isophoron)?
Answer: 33,7%

Question: And the “Löslichkeit in %” value ([3]; in N-Methylpyrrolidon)?
Answer: 30,8%

Question: What about the “Löslichkeit in (%)” value ([3]; in Säureamid Nr. 1, Rt) of the same compound?
Answer: 39,9%

Question: What about the “Löslichkeit in (%)” value ([3]; in Säureamid Nr. 2, Rt) of the same compound?
Answer: 37,0%

Question: And the “Löslichkeit in (%)” value ([3]; in Säureamid Nr. 3, Rt)?
Answer: 43,8%

Question: And the “Löslichkeit in (%)” value ([3]; in Säureamid Nr. 4, Rt)?
Answer: 45,4%

Question: What about the “Löslichkeit in (%)” value ([3]; in Säureamid Nr. 5, Rt) of the same compound?
Answer: 41,6%

Question: What about the “Löslichkeit in (%)” value ([3]; in Säureamid Nr. 6, Rt) of the same compound?
Answer: 49,0%

Question: What about the “Löslichkeit in (%)” value ([3]; in Säureamid Nr. 7, Rt) of the same compound?
Answer: 38,8%

Question: What about the “Löslichkeit in (%)” value ([3]; in Säureamid Nr. 8, Rt) of the same compound?
Answer: 45,5%

Question: What about the “Löslichkeit in (%)” value ([3]; in Säureamid Nr. 9, Rt) of the same compound?
Answer: 29,1%

Question: And the “Löslichkeit in (%)” value ([3]; in Säureamid Nr. 10, Rt)?
Answer: 39,5%

Question: What about the “Löslichkeit in (%)” value ([3]; in Säureamid Nr. 11, Rt) of the same compound?
Answer: 29,4%

Question: What about the “Löslichkeit in (%)” value ([3]; in Säureamid Nr. 12, Rt) of the same compound?
Answer: 33,3%

Question: And the “Löslichkeit in (%)” value ([3]; in Säureamid Nr. 13, Rt)?
Answer: 31,1%

Question: Which “Phenmedipham-Abbau Wirkstoffgehalt” value ([4]; formulation (g/l): 50 Phenmedipham, 150 Chloridazon, 200 Netzmittel, 50 Emulgiermittel, ad 1000 g Dimethylformamid, 50°C, 4 Wochen, 40320 min) does the source give for `COC(=O)Nc1cccc(OC(=O)Nc2cccc(C)c2)c1` [Phenmedipham, 3-Methoxycarbonylaminophenyl-N-(3'-methyl-phenyl)-carbamat] here?
Answer: 4,8%

Question: And the “Phenmedipham-Abbau Wirkstoffgehalt” value ([4]; formulation (g/l): 50 Phenmedipham, 150 Chloridazon, 200 Netzmittel, 50 Emulgiermittel, ad 1000 g Dimethylformamid, Rt, 4 Wochen, 40320 min)?
Answer: 79,5%

Question: And the “Phenmedipham-Abbau Wirkstoffgehalt” value ([4]; formulation (g/l): 167 Chloridazon, 83 Phenmedipham, 300 N-Methylpyrrolidon, 24 Morpholin, 100 Emulgiermittel, 326 Cyclohexanon-Destillationsrückstände (DE-PS 16 42 216, Beispiel 6/I), 50°C, 1 Stunde)?
Answer: 30,8%

Question: What about the “Phenmedipham-Abbau Wirkstoffgehalt” value ([4]; formulation with N-Methylpyrrolidon and Morpholin (DE-PS 16 42 216, Beispiel 6/I), 50°C, 2 Stunden) of the same compound?
Answer: 16,4%

Question: And the “Phenmedipham-Abbau Wirkstoffgehalt” value ([4]; formulation with N-Methylpyrrolidon and Morpholin (DE-PS 16 42 216, Beispiel 6/I), 50°C, 3 Stunden)?
Answer: 12,8%

Question: What about the “Phenmedipham-Abbau Wirkstoffgehalt” value ([4]; formulation with N-Methylpyrrolidon and Morpholin (DE-PS 16 42 216, Beispiel 6/I), 70°C, 1 Stunde) of the same compound?
Answer: 3,21%

Question: What about the Wirkstoffgehalt ([4]; formulation with mixture of Dimethylformamid and Isophoron instead of Dimethylformamid alone, 4 Wochen, 50° C, 40320 min) of the same compound?
Answer: ca. 60%

Question: And the remaining at 24 h ([5]; 2-äthylhexancarbonsäureamid, 2-Äthylhexancarbonsäureamid (Nr. 9 aus Tabelle 4), 50°C)?
Answer: 98.1%

Question: And the remaining at 24 h ([5]; 2-äthylhexancarbonsäureamid, 2-Äthylhexancarbonsäureamid (Nr. 9 aus Tabelle 4), 70°C)?
Answer: 98%

Question: And the remaining at 24 h ([5]; dimethylformamid, 50°C)?
Answer: 9.3%

Question: And the remaining at 24 h ([5]; isophoron, 50°C)?
Answer: 99.3%

Question: What about the remaining at 24 h ([5]; isophoron, 70°C) of the same compound?
Answer: 96.3%

Question: And the remaining at 24 h ([5]; n,n-dipropylbuttersäureamid, N,N-Dipropylbuttersäureamid (Nr. 7 aus Tabelle 4), 50°C)?
Answer: 100%

Question: And the remaining at 24 h ([5]; n,n-dipropylbuttersäureamid, N,N-Dipropylbuttersäureamid (Nr. 7 aus Tabelle 4), 70°C)?
Answer: 97.6%

Question: And the remaining at 24 h ([5]; n,n-diäthyl-3-methyl-benzolcarbonsäureamid, N,N-Diäthyl-3-methyl-benzolcarbonsäureamid (Nr. 11 Tabelle 4), 50°C)?
Answer: 95.5%

Question: What about the remaining at 24 h ([5]; n,n-diäthyl-3-methyl-benzolcarbonsäureamid, N,N-Diäthyl-3-methyl-benzolcarbonsäureamid (Nr. 11 Tabelle 4), 70°C) of the same compound?
Answer: 60%

Question: Which “H2O-Löslichkeit des Lösungsmittels (%) Gew.-% Lösungs-mittel in Wasser” value [2] does the source give for `CC1=CC(=O)CC(C)(C)C1` [Isophoron, reference compound] here?
Answer: 1,2%

Question: With `CCN(CC)C(=O)c1cccc(C)c1` [compound 11] as the compound, how does the “Wasserlöslichkeit der Lösungsmittel (%)” value [2] read?
Answer: 2,2%

Question: Which “Wasserlöslichkeit der Lösungsmittel (%)” value [2] does the source give for `CCN(CC)C(=O)c1ccccc1` [compound 10] here?
Answer: 3,7%
